Source: ChEMBL document CHEMBL1140924, “Biomedical application of orexin/hypocretin receptor ligands in neuroscience” (J Med Chem, 2009)
In brackets after ≈: the same amount, converted by molar mass. Each block holds one compound with its values, some of them ahead of it.

What was measured:
Orexin receptor type 2 [1] = target: T1, Orexin receptor type 2 (Homo sapiens, UniProt O43614); experiment: Antagonist activity at OX2 receptor by FLIPR; assay type: functional
T1 sequence (O43614 whole entry): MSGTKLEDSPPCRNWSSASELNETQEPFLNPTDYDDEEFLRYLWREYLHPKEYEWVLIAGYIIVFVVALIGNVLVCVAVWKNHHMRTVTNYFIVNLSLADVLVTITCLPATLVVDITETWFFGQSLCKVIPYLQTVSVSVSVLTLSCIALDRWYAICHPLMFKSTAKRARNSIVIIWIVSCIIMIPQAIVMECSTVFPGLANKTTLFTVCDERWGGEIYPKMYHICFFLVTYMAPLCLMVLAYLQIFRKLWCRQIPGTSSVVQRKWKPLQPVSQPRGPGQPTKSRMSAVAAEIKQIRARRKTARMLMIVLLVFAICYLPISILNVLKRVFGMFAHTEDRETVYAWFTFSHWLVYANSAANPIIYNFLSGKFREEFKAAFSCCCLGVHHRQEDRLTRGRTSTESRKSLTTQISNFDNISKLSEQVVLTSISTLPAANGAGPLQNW

[2] = target: T2, Orexin/Hypocretin receptor type 1 (Homo sapiens, UniProt O43613); experiment: Antagonist activity at OX1 receptor by FLIPR; assay type: functional
T2 sequence (O43613 whole entry): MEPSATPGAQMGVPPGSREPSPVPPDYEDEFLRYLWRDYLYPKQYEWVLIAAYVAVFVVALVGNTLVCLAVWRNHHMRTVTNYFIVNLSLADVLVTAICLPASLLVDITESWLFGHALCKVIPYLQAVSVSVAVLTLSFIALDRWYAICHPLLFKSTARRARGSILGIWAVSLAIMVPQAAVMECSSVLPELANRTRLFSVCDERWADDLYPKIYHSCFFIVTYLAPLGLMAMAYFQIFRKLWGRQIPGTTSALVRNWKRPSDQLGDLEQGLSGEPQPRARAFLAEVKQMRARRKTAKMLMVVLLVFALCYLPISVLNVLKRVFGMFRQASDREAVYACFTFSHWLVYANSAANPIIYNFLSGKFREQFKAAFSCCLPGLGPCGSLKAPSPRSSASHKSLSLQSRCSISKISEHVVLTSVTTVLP

[3] = Aqueous solubility at pH 7; assay type: physicochemical
[4] = Inhibition of neuropeptide Y receptor at 10 uM
[5] = Inhibition of galanin receptor at 10 uM
Orexin receptor type 2 [6] = target: T1, Orexin receptor type 2; experiment: Antagonist activity at human OX2 receptor; assay type: functional
[7] = target: T2, Orexin/Hypocretin receptor type 1; experiment: Antagonist activity at human OX1 receptor; assay type: functional
[8] = Selectivity for OX1 receptor over OX2 receptor
[9] = target: T2, Orexin/Hypocretin receptor type 1; experiment: Binding affinity to OX1 receptor
[10] = target: Kappa-type opioid receptor (Homo sapiens) (UniProt P41145); experiment: Inhibition of kappa opioid receptor at 10 uM
[11] = Selectivity of Ki for OX1 receptor to Ki for OX2 receptor
[12] = target: T3, Neuromedin-K receptor (Homo sapiens) (UniProt P29371); experiment: Inhibition of neurokinin-3 receptor at 10 uM
T3 sequence (whole entry): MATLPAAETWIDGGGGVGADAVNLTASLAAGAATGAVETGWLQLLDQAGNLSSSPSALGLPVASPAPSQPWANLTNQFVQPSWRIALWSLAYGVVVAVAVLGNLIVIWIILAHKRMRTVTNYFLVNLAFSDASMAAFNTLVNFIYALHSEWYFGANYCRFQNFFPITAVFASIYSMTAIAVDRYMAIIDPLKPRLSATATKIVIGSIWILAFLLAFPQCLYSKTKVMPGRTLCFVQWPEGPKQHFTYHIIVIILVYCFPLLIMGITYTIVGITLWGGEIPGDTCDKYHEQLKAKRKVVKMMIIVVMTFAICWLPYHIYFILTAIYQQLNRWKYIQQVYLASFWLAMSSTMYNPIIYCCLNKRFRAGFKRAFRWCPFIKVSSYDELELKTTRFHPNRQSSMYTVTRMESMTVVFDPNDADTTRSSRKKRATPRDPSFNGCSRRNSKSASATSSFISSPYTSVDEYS

[13] = target: T4, Neuropeptide Y receptor type 1 (Homo sapiens) (UniProt P25929); experiment: Inhibition of NPY1 receptor at 10 uM
T4 sequence (whole entry): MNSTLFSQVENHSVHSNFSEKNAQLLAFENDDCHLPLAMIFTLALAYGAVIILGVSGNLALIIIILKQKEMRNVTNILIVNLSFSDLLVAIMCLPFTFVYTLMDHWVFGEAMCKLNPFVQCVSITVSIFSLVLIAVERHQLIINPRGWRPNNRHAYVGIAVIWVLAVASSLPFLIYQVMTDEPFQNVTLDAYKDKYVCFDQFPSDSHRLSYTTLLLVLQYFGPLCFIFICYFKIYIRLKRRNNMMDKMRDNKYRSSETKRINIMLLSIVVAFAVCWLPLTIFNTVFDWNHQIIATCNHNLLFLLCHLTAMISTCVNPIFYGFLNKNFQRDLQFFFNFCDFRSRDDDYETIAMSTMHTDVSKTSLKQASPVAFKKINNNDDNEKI

Orexin receptor type 2 [14] = target: T1, Orexin receptor type 2; experiment: Binding affinity to OX2 receptor
[15] = target: T5, Orexin receptor type 2 (Homo sapiens) (UniProt O43614); experiment: Antagonist activity at human OX2 receptor expressed in CHO cells assessed as inhibition of receptor-mediated calcium response by FLIPR; assay type: functional, cell-based
T5 sequence (whole entry): T1 sequence (O43614 whole entry)

[16] = target: T6, Orexin/Hypocretin receptor type 1 (Homo sapiens) (UniProt O43613); experiment: Antagonist activity at human OX1 receptor expressed in CHO cells assessed as inhibition of receptor-mediated calcium response by FLIPR; assay type: functional, cell-based
T6 sequence (whole entry): T2 sequence (O43613 whole entry)

Kappa-type opioid receptor (Homo sapiens), sequence (P41145 whole entry): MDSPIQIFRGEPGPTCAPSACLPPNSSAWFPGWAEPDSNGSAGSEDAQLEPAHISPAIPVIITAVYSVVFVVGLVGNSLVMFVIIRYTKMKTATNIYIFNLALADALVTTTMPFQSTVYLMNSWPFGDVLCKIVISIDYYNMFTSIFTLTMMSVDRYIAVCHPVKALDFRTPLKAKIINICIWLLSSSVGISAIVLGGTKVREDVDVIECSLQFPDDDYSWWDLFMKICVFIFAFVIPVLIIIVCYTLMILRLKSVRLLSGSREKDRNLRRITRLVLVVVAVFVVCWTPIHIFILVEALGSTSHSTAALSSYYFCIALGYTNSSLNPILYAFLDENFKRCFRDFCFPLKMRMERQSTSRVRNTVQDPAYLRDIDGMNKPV

IC50 (Orexin receptor type 2 [1]): 2 nM
IC50 [2]: 49 nM
SMILES: CCc1nc(OC)c2n1CCN([C@@H](C(=O)NC)c1ccccc1)[C@H]2CCc1ccc(C)c(F)c1

IC50 (Orexin receptor type 2 [1]): 4 nM
IC50 [2]: 6 nM
SMILES: CCN(Cc1cc(C)n(C)n1)C(=O)CN(c1cc(N(C)C)ccc1Cl)S(=O)(=O)c1ccc(OC)c(OC)c1

solubility [3]: 810 µg/mL (≈ 2020 µM)
SMILES: COc1cc2c(cc1OC)CN(C(=O)C(Cc1ccccc1)c1ccccc1)CC2 (racemic)

IC50 (Orexin receptor type 2 [1]): 4 nM
IC50 [2]: 5 nM
SMILES: CCc1nc(OC)c2n1CCN([C@@H](C(=O)NC)c1ccccc1)[C@H]2CCc1ccc(C)c(C)c1

IC50 (Orexin receptor type 2 [1]): 7 nM
IC50 [2]: 12 nM
SMILES: CCN(Cc1ccn(C)n1)C(=O)CN(c1cc(N(C)C)ccc1Cl)S(=O)(=O)c1ccc(OC)c(OC)c1

inhibition [4]: < 30%
inhibition [5]: < 30%
SMILES: COc1cc2c(cc1OC)CN(C(=O)[C@@H](NCc1ccncc1)C(C)(C)C)CC2

IC50 (Orexin receptor type 2 [1]): 17 nM
IC50 [2]: 19 nM
SMILES: Cc1cccc(-c2sc(CCCO)nc2C(=O)N2C[C@H]3C[C@H]3[C@H]2CNC(=O)c2c(C)nc3sccn23)c1

IC50 (Orexin receptor type 2 [6]): 28 nM
IC50 [7]: 3600 nM
SMILES: CNC1CCCC1CN[C@H](C(=O)N1CCc2cc(OC)c(OC)cc2C1)C(C)(C)C (stereo partly drawn)

Ratio [8]: > 50
Kd [9]: 4.47 nM
SMILES: CN(C)c1ccc(NC(=O)Nc2ccnc3c(F)ccc(F)c23)cc1

inhibition [10]: < 40%
Ratio [11]: 600
inhibition [12]: < 40%
inhibition [13]: < 40%
Ki (Orexin receptor type 2 [14]): 3160 nM
SMILES: CC1(C)OC[C@H](NC(=O)Nc2ccc(Br)cc2Br)[C@H](c2ccccc2)O1

Ratio [8]: > 100
Kd [9]: 5.13 nM
SMILES: Cc1nc(C(=O)N2CCC[C@H]2Cc2nnc(-c3ccccc3)o2)c(-c2ccccc2F)s1

Ratio [8]: > 50
Kd [9]: 26.9 nM
SMILES: Cc1cc(NC(=O)Nc2ccc(N(C)C)cc2)c2cc(F)cc(F)c2n1

IC50 (Orexin receptor type 2 [1]): 5 nM
IC50 [2]: 17 nM
SMILES: CCN(Cc1cccc(C)n1)C(=O)CN(c1cc(N(C)C)ccc1Cl)S(=O)(=O)c1ccc(OC)c(OC)c1

IC50 (Orexin receptor type 2 [6]): 36 nM
IC50 [7]: 5300 nM
SMILES: COc1cc2c(cc1OC)CN(C(=O)C(Cc1ccccc1)C(=O)c1cc(Cl)cc(Cl)c1)CC2 (racemic)

Ratio [11]: 70
Ki (Orexin receptor type 2 [14]): > 5010 nM
Ki [9]: 79.4 nM
SMILES: CC1(C)OC[C@H](NC(=O)Nc2ccccc2I)[C@H](c2ccccc2)O1

pKb [15]: 5.6
pKb [16]: 7.5
SMILES: Cn1ccc2cc(NC(=O)Nc3ccnc4ccccc34)ccc21

Ratio [11]: 40
Ki (Orexin receptor type 2 [14]): > 10000 nM
Ki [9]: 251 nM
SMILES: CC1(C)OC[C@H](NC(=O)Nc2ccc(Br)cc2)[C@H](c2ccccc2)O1
